From patent US10292393B2, “Mitigation of alternate bearing” (The Regents of the University of California, priority 2009, dated 2019)
Marks after values point to notes of the source that are not given here.

Columns and labels:
[1] = tested on: on-crop ‘Hass’ avocado trees; assay: Trunk injections, spring bloom and yield of on-crop avocado trees; type: in vivo, ‘Hass’ avocado (Persea americana cv. Hass); conditions: trunk injection 1 g/tree, Jan; for Floral (with fruit): branches with fruit; for Floral (w/o fruit): branches without fruit; for Fruit yield: putative off-crop following the on-crop; for Determinate floral shoots / Floral shoots / Indeterminate floral shoots: spring bloom
Method: This example describes the mitigation of alternate bearing in ‘Hass’ avocado trees achieved via trunk injection of adenosine and plant growth regulators. The following treatments were injected (1 g/tree) in mid-January into the trunk of on-crop ‘Hass’ avocado trees in a commercial orchard in Irvine, Calif.: (1) 9-beta-D-adenosine (Sigma Chemical, Catalog No. A9251); (2) 6-BA (Sigma Chemical); (3) GA3 (PROGIBB® 40%, Valent BioSciences Corp.); (4) TIBA (Sigma Chemical); and (5) TIBA plus adenosine. Each material was supplied at the rate of 1 g per tree dissolved in 50-60 ml distilled water using two plastic syringes per tree. There were five individual tree replicates per treatment, including (6) untreated on-crop control trees. For each tree, branches (12 inches long), 1 with fruit and 1 branch without fruit in each of the four tree quadrants, were tagged.

[2] = tested on: on-crop ‘Nules’ Clementine mandarin trees; assay: Trunk injections, spring bloom of on-crop mandarin trees; type: in vivo; conditions: trunk injection 1 g per tree, counted at spring bloom
Source text: This example describes the mitigation of alternate bearing in ‘Nules’ Clementine mandarin trees achieved via trunk injection of adenosine in a composition containing the auxin transport inhibitor TIBA. On-crop ‘Nules’ Clementine mandarin trees received trunk injections of the following compounds listed in Table 1-1: TIBA (2,3,5-triiodobenzoic acid) (Sigma Chemical); 6-BA (6-benzyladenine) (Sigma Chemical); GA3 (PROGIBB® 40%, Valent BioSciences Corp.); and Ado (9-beta-D-adenosine) (Sigma Chemical, Catalog No. A9251) alone or in combination with TIBA. Each material was supplied at the rate of 1 g per tree dissolved in 50-60 ml distilled water using two plastic syringes per tree at each application time. Application times were timed (1) to stimulate summer shoot growth by overcoming correlative inhibition (July) and (2) to overcome inhibition of spring bud break (January). Thus, trees were treated in July alone or in July and January. There was also a treatment in which the apical three nodes of each shoot were removed to release the lateral buds from the dominance of the apical bud to promote summer vegetative shoot growth. The treatments included untreated on-crop control trees and untreated off-crop control trees. The experimental design was a randomized complete block with 5 individual tree replications per treatment with 13 treatments. For each tree, branches (12 inches long), 3 with fruit and 1 branch without fruit in each of the four tree quadrants, were tagged (off-crop control trees were tagged 3 without fruit and 1 with fruit). At the end of September and December, the number and length of new vegetative shoots were quantified to determine the capacity of treatments to overcome inhibition of buds that produce the summer and fall flush shoots, respectively.

[3] = tested on: ‘Fina Sodea’ Clementine mandarin trees
[4] = tested on: mandarins; conditions: cited from earlier work
[5] = 3-year cumulative, 25 mg/L in 250 gallons water per acre, once at maximum peel thickness
[6] = 3-year cumulative, jumbo (63.51-69.85 mm)
[7] = 3-year cumulative, large (57.16-63.50 mm)
[8] = 3-year cumulative, mammoth (69.86-76.20 mm)
[9] = 3-year cumulative, medium (50.81-57.15 mm)
[10] = 3-year cumulative, small (44.45-50.80 mm)

| Structure (SMILES) | Floral (with fruit) [1] | Floral (w/o fruit) [1] | Fruit yield [1] [No. per tree] | Determinate floral shoots [1] | Floral shoots [1] | Indeterminate floral shoots [1] | Floral on Spring shoots ([2]; Jul + Jan) | Floral on Summer-Fall shoots ([2]; Jul + Jan) | Floral shoots ([2]; Jul + Jan) | Leafless Floral shoots ([2]; Jul + Jan) | Leafy Floral shoots ([2]; Jul + Jan) | Floral on Spring shoots ([2]; July) | Floral on Summer-Fall shoots ([2]; July) | Floral shoots ([2]; July) | Leafless Floral shoots ([2]; July) | Leafy Floral shoots ([2]; July) | further results |
| --- | --- | --- | --- | --- | --- | --- | --- | --- | --- | --- | --- | --- | --- | --- | --- | --- | --- |
| O=C(O)c1cc(I)cc(I)c1I [TIBA, 2,3,5-triiodobenzoic acid] | 11 No. of shoots per 100 nodes | 8 No. of shoots per 100 nodes | 478 | 1 b No. of shoots per 100 nodes | 9 b No. of shoots per 100 nodes | 8 No. of shoots per 100 nodes | 5 bc No. of shoots per 100 nodes | 26 No. of shoots per 100 nodes | 18 No. of shoots per 100 nodes | 3 No. of shoots per 100 nodes | 15 No. of shoots per 100 nodes | 3 bc No. of shoots per 100 nodes | 27 No. of shoots per 100 nodes | 19 No. of shoots per 100 nodes | 5 No. of shoots per 100 nodes | 13 No. of shoots per 100 nodes |  |
| Nc1ncnc2c1ncn2[C@@H]1O[C@H](CO)[C@@H](O)[C@H]1O [Ado, 9-beta-D-adenosine] | 8 No. of shoots per 100 nodes | 10 No. of shoots per 100 nodes | 220 | 3 ab No. of shoots per 100 nodes | 10 ab No. of shoots per 100 nodes | 7 No. of shoots per 100 nodes | 5 bc No. of shoots per 100 nodes | 16 No. of shoots per 100 nodes | 12 No. of shoots per 100 nodes | 0 No. of shoots per 100 nodes | 12 No. of shoots per 100 nodes | 2 bc No. of shoots per 100 nodes | 14 No. of shoots per 100 nodes | 10 No. of shoots per 100 nodes | 2 No. of shoots per 100 nodes | 8 No. of shoots per 100 nodes | Quantity of fruit, Total [3, 5]: 1529.3^y fruit no./tree; Yield of fruit, Total [3, 5]: 126.30^y kg/tree; Quantity of fruit, Colossal ([3]; 3-year cumulative, colossal (76.21-82.55 mm)): 5.64 fruit no./tree; Quantity of fruit, Jumbo [3, 6]: 128.25 a fruit no./tree; Yield of fruit, Jumbo [3, 6]: 15.42 a kg/tree; Quantity of fruit, Large [3, 7]: 360.93 a fruit no./tree; Yield of fruit, Large [3, 7]: 34.67 a kg/tree; Quantity of fruit, Mammoth [3, 8]: 22.89 fruit no./tree; Yield of fruit, Mammoth [3, 8]: 3.52 kg/tree; Quantity of fruit, Medium [3, 9]: 497.05 fruit no./tree; Yield of fruit, Medium [3, 9]: 37.00 kg/tree; Yield of fruit, Colossal ([3]; 3-year cumulative, packing carton size colossal (76.21-82.55 mm)): 1.04 kg/tree; Quantity of fruit, Small [3, 10]: 417.12 fruit no./tree; Yield of fruit, Small [3, 10]: 23.58 kg/tree; Quantity of fruit, Ma + J + L ([3]; 3-year cumulative, sum of mammoth, jumbo and large): 512.07 a fruit no./tree; Yield of fruit, Ma + J + L ([3]; 3-year cumulative, sum of mammoth, jumbo and large (57.16-76.20 mm)): 53.60 kg/tree; Effects on mandarin fruit quality ([3]; in vivo): did not have negative effects; Net increase in total yield ([3]; versus control, numerical (non-significant)): 6,799 lbs fruit/200 trees/acre; Net increase in 3-year cumulative yield of commercially valuable large fruit (57.16-76.20 mm in diameter) ([3]; versus control, statistically significant): 4,735 lbs/200 trees/acre |
| C=C1C[C@]23C[C@@]1(O)CC[C@H]2[C@@]12C=C[C@H](O)[C@@](C)(C(=O)O1)[C@H]2[C@@H]3C(=O)O [GA3, gibberellic acid] | 6 No. of shoots per 100 nodes | 8 No. of shoots per 100 nodes | 194 | 2 b No. of shoots per 100 nodes | 7 b No. of shoots per 100 nodes | 6 No. of shoots per 100 nodes | 0 c No. of shoots per 100 nodes | 2 No. of shoots per 100 nodes | 1 No. of shoots per 100 nodes | 0 No. of shoots per 100 nodes | 1 No. of shoots per 100 nodes | 0 c No. of shoots per 100 nodes | 4 No. of shoots per 100 nodes | 3 No. of shoots per 100 nodes | 0 No. of shoots per 100 nodes | 3 No. of shoots per 100 nodes | Effect on total number of fruit per tree ([4]; light crop year (approximately 550 fruit per tree), four applications from 60% bloom, 15 or 25 mg GA3/L): successfully increase the total number of fruit per tree; Effect on total yield and yield of large size fruit ([4]; on-crop years (approximately 1200 fruit per tree)): either reduced both total yield and yield of commercially valuable large size fruit (packing carton sizes large, jumbo and mammoth) or had no effect |
